Results on 6 compounds are retold here after patent publication US20090130707A1, “Methods of reducing the inhibitory effect of a redox active metal ion on the enzymatic hydrolysis of cellulosic material” (priority 2007, published 2009).

The test system of series [1] is Cellulolytic Enzyme Composition #1. The experiment in a line: mini-scale PCS hydrolysis by Cellulolytic Enzyme Composition #1. The series is classed as biochemical, Trichoderma reesei. The settings on record: for cellobiose level in the hydrolysis products versus absence of the compounds: PCS hydrolysis; for Effect of chelator on enzyme in the absence of FeSO4: PCS hydrolysis (FIGS. 23A-23D). As to the method:
The effect of various salts (FeSO4, FeCl2, NaCl, Na2SO4, MnSO4, MnCl2) was determined in the hydrolysis of PCS by Cellulolytic Enzyme Composition #2. The PCS hydrolysis was performed in duplicate in capped 1.7 ml EPPENDORF® tubes (“mini-scale”) containing 1 ml suspensions of 43.4 g of PCS (dry weight) per liter, 10 mM salts in 50 mM sodium acetate pH 5. Cellulolytic Enzyme Composition #2 was added at 0.25 g per liter. Reactions without the addition of the salt served as controls. The capped tubes were incubated at 50° C. in an INNOVA® 4080 incubator shaker (New Brunswick Scientific Co., Inc., Edison, N.J., USA) at 150 rpm.
(§1) Aliquots of the suspensions, sampled over time, were filtered by centrifugation using a 0.45 μm MULTISCREEN® HV membrane (Millipore, Billerica, Mass., USA) at 2000 rpm for 15 minutes using a SORVALL® RT7 centrifuge (Thermo Fisher Scientific, Waltham, Mass., USA). When not used immediately, the filtered sugary aliquots were frozen at −20° C. Sugar concentrations of the samples diluted in 0.005 M H2SO4 were measured after elution from a 4.6×250 mm AMINEX® HPX-87H column (Bio-Rad, Hercules, Calif., USA) by 0.005 M H2SO4 at a flow rate of 0.4 ml/minute at 65° C. with quantitation by integration of glucose and cellobiose using refractive index detection (CHEMSTATION®, AGILENT® 1100 HPLC, Agilent Technologies, Santa Clara, Calif., USA) calibrated with standards of glucose and cellobiose. The resultant equivalents were used to calculate the percentage of cellulose conversion for each reaction.
Example 30 was repeated with both Cellulolytic Enzyme Composition #1 and Cellulolytic Enzyme Composition #2. Soluble reducing sugars were measured by HPLC as described in Example 30. Reactions without the addition of FeSO4 served as controls.
The hydrolysis was performed in a series of duplicate “mini-scale” hydrolysis reactions according to the procedure described in Example 30.

Series [2] shares this test system. The experiment in a line: mini-plate-scale AVICEL hydrolysis by Cellulolytic Enzyme Composition #1. The series is classed as biochemical, Trichoderma reesei. The settings on record: 10 mM, 25 g AVICEL and 0.25 g enzyme per liter, pH 5, 50° C. How it is done:
(§2) Various (biologically common) divalent metal cations with variable ionic radii were tested in 2.8 ml Deep Well Microplates (VWR International, West Chester, Pa., USA) (“mini-plate-scale”) containing 1 ml suspensions of 25 g of AVICEL® per liter in 50 mM sodium acetate pH 5 at 50° C. Cellulolytic Enzyme Composition #1 was added at 0.25 g per liter for each hydrolysis. The mini-plates were sealed at 160° C. for 2 seconds using an ABGENE® ALPS 300™ sealer (ABgene, Rochester, N.Y., USA). The sealed mini-plates were incubated at 50° C. in an INNOVA® 4080 incubator shaker at 150 rpm. Soluble reducing sugars were measured by HPLC as described in Example 30.
Iron-chelator complexes of variable size or redox property were tested for their ability to inhibit enzymatic hydrolysis of cellulose. […]

In series [3] the test system is Cellulolytic Enzyme Composition #2. The experiment in a line: mini-plate-scale PCS hydrolysis by Cellulolytic Enzyme Composition #2 with H2O2 and ferric ion chelator. It counts as biochemical, Trichoderma reesei. The settings on record: for Effect on the inhibition by ferrous ion: 2.5 mM FeSO4, 10 mM H2O2 for 30 minutes, 10 mM desferrioxamine. As to the method: However, prior to the addition of Cellulolytic Enzyme Composition #2, the mixture of PCS and FeSO4 was treated with 10 mM H2O2 for 30 minutes. In some cases, 10 mM desferrioxamine was also added. Reactions without the addition of FeSO4 or H2O2 served as controls.

The conditions of series [4]: single-electron oxidation potential of iron-chelator complexes; cited from earlier work.
For series [5], the system named is Cellulolytic Enzyme Composition #2. The experiment in a line: mini-scale PCS hydrolysis by Cellulolytic Enzyme Composition #2. The series is classed as biochemical, Trichoderma reesei. The settings on record: 10 mM salt; 43.4 g PCS and 0.25 g enzyme per liter, 50 mM sodium acetate pH 5, 50° C. How it is done:
Corn stover was pretreated at the U.S. Department of Energy National Renewable Energy Laboratory (NREL), […], Colo., USA, using dilute sulfuric acid. The following conditions were used for the pretreatment: 1.4 wt % sulfuric acid at 195° C. for 4.5 minutes. According to limit digestion with excess cellulase enzymes, the water-insoluble solids in the pretreated corn stover (PCS) contained 59.5% cellulose. Prior to use, the PCS was washed with a large volume of deionized water until soluble acid and sugars were removed. The dry weight of the water-washed PCS was 19.16%.
The effect of various salts (FeSO4, FeCl2, NaCl, Na2SO4, MnSO4, MnCl2) was determined in the hydrolysis of PCS by Cellulolytic Enzyme Composition #2. […] Cellulolytic Enzyme Composition #2 was added at 0.25 g per liter. Reactions without the addition of the salt served as controls. The capped tubes were incubated at 50° C. in an INNOVA® 4080 incubator shaker (New Brunswick Scientific Co., Inc., Edison, N.J., USA) at 150 rpm.
as §1
The degree of cellulose conversion to glucose plus cellobiose (% conversion) was calculated using the following equation:
% Conversion=(glucose+cellobiose×1.053)(mg/ml)×100×162/cellulose(mg/ml)×180)=(glucose+cellobiose×1.053)(mg/ml)×100/(cellulose(mg/ml)×1.111)
In this equation the factor 1.111 reflects the weight gain in converting cellulose to glucose, and the factor 1.053 reflects the weight gain in converting cellobiose to glucose. Cellulose in PCS was determined by a limit digest of PCS to release glucose and cellobiose.

The subject of series [6] is Cellulolytic Enzyme Composition #1. Nature of the series: mini-plate-scale PASC hydrolysis by Cellulolytic Enzyme Composition #1. It counts as biochemical, Trichoderma reesei. The settings on record: 10 mM; 2 g PASC and 0.01 g enzyme per liter. How it is done:
as §2
In one series of “mini-scale” hydrolysis reactions performed according to the procedure described in Example 30, the effect of 1 mM to 10 mM FeSO4 was evaluated in the hydrolysis of AVICEL® by Cellulolytic Enzyme Composition #1. In a series of “mini-plate-scale” hydrolysis reactions performed according to the procedure described in Example 32, the effect of 1 mM to 10 mM FeSO4 was evaluated in the hydrolysis of PASC by Cellulolytic Enzyme Composition #1, except 2 g of PASC and 0.05 g Cellulolytic Enzyme Composition #1 per liter of 50 mM sodium acetate pH 5 were used.
The above study was extended to a range of concentration of Fe(II) and cellulose. In a series of “mini-plate-scale” hydrolysis reactions performed according to the procedure described in Example 32, except that 0.1 to 10 mM FeSO4, 0.6 to 4 g of PASC and 0.01 g of Cellulolytic Enzyme Composition #1 per liter of 50 mM sodium acetate pH 5 were used.

For series [7] the test system is unchanged. Nature of the series: Pre-incubation of iron ion with AVICEL or enzyme, then AVICEL hydrolysis. It counts as biochemical, Trichoderma reesei. As to the method: To test whether Fe(II) affects cellulose or cellulase, 10 mM FeCl2 was pre-incubated with either 25 g of AVICEL® or 0.25 g of Cellulolytic Enzyme Composition #1 per liter of 50 mM sodium acetate pH 5 for three days. “Fe-pretreated” AVICEL® was washed and Cellulolytic Enzyme Composition #1 was gel-filtered using BioSpin 6 desalting columns (Bio-Rad, Hercules, Calif., USA) to remove residual Fe ion. Fe-pretreated AVICEL® was hydrolyzed with fresh Cellulolytic Enzyme Composition #1 or Cellulolytic Enzyme Composition #1 subjected to “FeCl2-less” pre-incubation and gel filtration. Fe-pretreated Cellulolytic Enzyme Composition #1 was applied to hydrolyze fresh AVICEL® or AVICEL® subjected to “FeCl2-less” pre-incubation and washing, in comparison with the hydrolysis of fresh AVICEL® ([…]) by fresh Cellulolytic Enzyme Composition #1 ([…]), with or without 10 mM FeCl2. All hydrolyses were performed using the “mini-plate-scale” hydrolysis reaction procedure described in Example 32, except for the change in cellulose or cellulase described above.
To test whether Fe(III) affected cellulose or cellulase, 10 mM FeCl3 was pre-incubated with either 25 g of AVICEL® or 0.25 g of Cellulolytic Enzyme Composition #1 per liter of 50 mM sodium acetate pH 5 for three days. All hydrolyses were performed using the “mini-plate-scale” hydrolysis reactions according to the procedure described in Example 32, except for the change in cellulose or cellulase described above.

The test system is the same in series [8]. Nature of the series: Pre-incubation of iron ion with PASC or enzyme, then PASC hydrolysis. The series is classed as biochemical, Trichoderma reesei. How it is done:
The “pre-incubation” study was also performed for the hydrolysis of PASC. The experiments were similar to those described above, except 2 g of PASC, replacing AVICEL®, and 0.01 g of Cellulolytic Enzyme Composition #1 per liter of 50 mM sodium acetate pH 5, and 3 days pre-incubation were used. All hydrolyses were performed using the “mini-plate-scale” hydrolysis reaction according to the procedure described in Example 32, except for the change in cellulose or cellulase described above.

The mark [9] stands for this setting: 10 mM fresh salt, fresh AVICEL, fresh enzyme.
The mark [10] stands for this setting: 10 mM, pre-incubated three days with AVICEL.
The mark [11] stands for this setting: 10 mM, pre-incubated three days with Cellulolytic Enzyme Composition #1.
Setting [12] is: fresh salt, PASC, enzyme fresh or buffer pre-incubated.
The mark [13] stands for this setting: pre-incubated 3 days with Cellulolytic Enzyme Composition #1.

In the case of `c1cnc2c(c1)ccc1ncccc12` [1,7-Phenanthroline], in series [1], the “cellobiose level in the hydrolysis products versus absence of the compounds” value is given as “about twice” and the “Effect of chelator on enzyme in the absence of FeSO4” value is on record as “essentially benign”.

As to `c1cnc2c(c1)ccc1cccnc12` [1,10-phenanthroline], in series [1], the “cellobiose level in the hydrolysis products versus absence of the compounds” value is reported as “about twice” and the “Effect of chelator on enzyme in the absence of FeSO4” value is on record as “significant inhibition”.

As to `O=C([O-])CC(O)(CC(=O)[O-])C(=O)[O-].[Fe+3]` [Fe(III)-citrate, Fe-citrate], the “Effect on enzymatic cellulolysis: loss in initial rate” value in series [2] was “No significant change”. Further, the “Effect on enzymatic cellulolysis: loss in extended hydrolysis extent” value in series [2] (after 4 days) was “no change”. Moreover, the “Effect on hydrolysis of PCS” value in series [3] (1 and 10 mM) is given as “did not affect”. Moreover, the “E°” value in series [4] is recorded as −0.191^2 V.

For `[Cl][Fe][Cl]` [FeCl2, ferrous chloride], in series [5], the “Effect on PCS hydrolysis” value is on record as “significant inhibition”. Also, in series [6], the “loss of extent of hydrolysis after 4 days” value is reported as around 30%. Further, in series [6], the “loss of initial hydrolysis rate” value is recorded as around 30%. For the same compound, the “loss in extent of hydrolysis” value in series [7] (setting [9]) is listed as around 50%; in series [7] (setting [10]), around 10%; in series [7] (setting [11]) it was around 20%; in series [8] (setting [12]) it was “no loss”; in series [8] (setting [13]), “no loss”; in series [8] (pre-incubated 3 days with PASC), “no loss”. Further, the “loss in initial rate” value was around 50% in series [7] (setting [9]); around 10% in series [7] (setting [10]); around 20% in series [7] (setting [11]); “approximately 30%” in series [8] (setting [12]); around 70% in series [8] (setting [13]); around 60% in series [8] (pre-incubated 3 days with PASC).

As to `OO` [H2O2, Hydrogen peroxide], in series [3], the “Effect on the inhibition by ferrous ion” value is given as “reduced the inhibitory effect”. Also, the “Effect on hydrolysis in the absence of Fe(II)” value in series [3] (10 mM H2O2 with or without 10 mM desferrioxamine (FIG. 22B)) was “only affected the hydrolysis slightly”.

Consider `CC(=O)N(O)CCCCCNC(=O)CCC(=O)N(O)CCCCCNC(=O)CCC(=O)N(O)CCCCCN` [desferrioxamine], for which the “Effect on the inhibition by ferrous ion” value in series [3] is given as “mitigated almost all”. Further, in series [3] (10 mM, alone), the “increase in hydrolysis extent” value is given as “approximately 2%”.
